Four compounds from ChEMBL document CHEMBL1130322, “Anticancer and antiviral effects and inactivation of S-adenosyl-L-homocysteine hydrolase with 5'-carboxaldehydes and oximes synthesized from adenosine and sugar-modified analogues” (J Med Chem, 1997) can be followed below.

In brackets after ≈: the same amount, converted by molar mass. A value given as a limit tells only on which side of the number the result lay.

The subject of assay [1] is Human alphaherpesvirus 1. The assay is described as follows: microbe, parasite or virus in culture.
In the next assay the test system is MOLT-4. The assay is described as follows: cells. The settings on record: Homo sapiens.
A further assay has as its system CCRF-CEM. The assay is described as follows: cells. The settings on record: Homo sapiens.
In assay [2] the target is T1, Adenosylhomocysteinase (Homo sapiens, UniProt P23526).
Target sequence in this assay (P23526 2-432 limits assumed): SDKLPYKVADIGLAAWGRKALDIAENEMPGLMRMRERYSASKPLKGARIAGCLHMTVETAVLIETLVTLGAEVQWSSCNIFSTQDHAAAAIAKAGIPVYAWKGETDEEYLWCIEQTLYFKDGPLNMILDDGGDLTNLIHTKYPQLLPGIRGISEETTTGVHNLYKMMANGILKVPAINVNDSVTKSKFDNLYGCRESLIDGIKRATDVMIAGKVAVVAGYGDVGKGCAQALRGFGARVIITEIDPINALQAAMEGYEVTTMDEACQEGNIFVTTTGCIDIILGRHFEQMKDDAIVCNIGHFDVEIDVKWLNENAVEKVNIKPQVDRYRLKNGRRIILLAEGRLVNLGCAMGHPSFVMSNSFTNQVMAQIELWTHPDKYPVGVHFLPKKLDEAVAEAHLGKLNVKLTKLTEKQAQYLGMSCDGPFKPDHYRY
Assay [3] concerns MDCK. It counts as functional, Canis lupus familiaris. Also noted: unit not given here.
The subject of assay [4] is HeLa. In words: Minimum inhibitory concentration required to effect a microscopically visible change of cell morphology in HeLa cell culture. Also on record: unit not given here. It counts as functional, Homo sapiens.
For assay [5], the system named is Human alphaherpesvirus 1. In words: microbe, parasite or virus in culture. This is another data set of the same source.
Assay [6] concerns Vero. In words: cells. The following applies: Chlorocebus sabaeus.
The test system of assay [7] is HEL. In words: (§1) 50% Cytostatic concentration required to inhibit human erythroleukemic (HEL) cell proliferation. It is filed as functional.
The subject of another assay is L1210. In words: cells. The following applies: Mus musculus.
The subject of assay [8] is Vero. The assay is described as follows: cells. The following applies: Chlorocebus sabaeus. This is another data set of the same source.
A further assay concerns Human alphaherpesvirus 2. In words: microbe, parasite or virus in culture.
Assay [9] has as its system Human betaherpesvirus 5. In words: microbe, parasite or virus in culture.
The test system of assay [10] is HeLa. The assay is described as follows: cells. The following applies: Homo sapiens.
Assay [11] has as its system Vero. The assay is described as follows: cells. The following applies: Chlorocebus sabaeus. The source holds these as a separate data set.
Another assay deals with E6SM. In words: Minimum inhibitory concentration required to effect a microscopically visible change of cell morphology in human embryonic skin-muscle (E6SM) cell culture. It is filed as functional. Also on record: unit not given here.
Assay [12] has as its system Vero. In words: cells. The following applies: Chlorocebus sabaeus. This is another data set of the same source.
Assay [13] has as its system Vero. In words: cells. The following applies: Chlorocebus sabaeus. This is another data set of the same source.
Assay [14] deals with Human betaherpesvirus 5. In words: microbe, parasite or virus in culture. The source holds these as a separate data set.
For assay [15], the system named is Vero. In words: Minimum inhibitory concentration required to effect a microscopically visible change of cell morphology in Vero cell culture. Also on record: unit not given here. It counts as functional, Chlorocebus sabaeus.
Assay [16] concerns Human alphaherpesvirus 1. The assay is described as follows: microbe, parasite or virus in culture. The source holds these as a separate data set.
Another assay relates to FM3A. The assay is described as follows: cells. The settings on record: Mus musculus.
The test system of assay [17] is MDCK. In words: cells. The settings on record: Canis lupus familiaris.
Assay [18] deals with T1, Adenosylhomocysteinase. The source holds these as a separate data set.
Target sequence in this assay (P23526 whole entry): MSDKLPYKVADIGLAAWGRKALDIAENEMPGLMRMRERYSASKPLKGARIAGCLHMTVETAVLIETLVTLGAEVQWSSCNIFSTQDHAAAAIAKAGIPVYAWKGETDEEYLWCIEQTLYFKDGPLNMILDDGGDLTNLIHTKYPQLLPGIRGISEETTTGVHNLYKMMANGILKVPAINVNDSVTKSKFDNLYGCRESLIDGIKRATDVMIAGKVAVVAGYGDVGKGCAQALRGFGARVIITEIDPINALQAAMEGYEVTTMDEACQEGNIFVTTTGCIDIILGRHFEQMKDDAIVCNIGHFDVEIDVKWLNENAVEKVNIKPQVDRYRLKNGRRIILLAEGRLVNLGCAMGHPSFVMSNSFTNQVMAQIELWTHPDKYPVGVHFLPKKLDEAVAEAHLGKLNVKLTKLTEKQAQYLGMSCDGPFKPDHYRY
Assay [19] deals with MDCK. In words: cells. The settings on record: Canis lupus familiaris. The source holds these as a separate data set.
Assay [20] deals with Vero. In words: cells. The following applies: Chlorocebus sabaeus. The source holds these as a separate data set.
Assay [21] concerns Respiratory syncytial virus. In words: microbe, parasite or virus in culture. The settings on record: human respiratory syncytial virus, HeLa.
For assay [22], the system named is HeLa. The assay is described as follows: cells. The following applies: Homo sapiens. The source holds these as a separate data set.
The test system of assay [23] is Human alphaherpesvirus 1. In words: microbe, parasite or virus in culture. The source holds these as a separate data set.
For assay [24], the system named is HEL. The description is as §1. It is filed as functional. Also noted: unit not given here.
Assay [25] concerns Human alphaherpesvirus 1. The assay is described as follows: microbe, parasite or virus in culture. The source holds these as a separate data set.
Assay [26] concerns Human alphaherpesvirus 1. The assay is described as follows: microbe, parasite or virus in culture. This is another data set of the same source.

For `CCO/N=C/[C@H]1OC(n2cnc3c(N)ncnc32)[C@H](O)[C@@H]1O` (stereo not given in full), the EC50 was greater than 200 µg/mL in the assay with Human alphaherpesvirus 1 [1]; greater than 200 µg/mL with Human alphaherpesvirus 1 [5]; greater than 100 µg/mL with Vero [6]; 100 µg/mL (≈ 324 µM) with Vaccinia virus; greater than 100 µg/mL with Vero [8]; greater than 200 µg/mL with Human alphaherpesvirus 2. The EC50 with Human betaherpesvirus 5 [9] is greater than 10 µg/mL; in the assay on HeLa [10], greater than 200 µg/mL; with Vero [11], greater than 100 µg/mL; in the assay with Vero [12] it was greater than 100 µg/mL; in the assay with Vero [13], greater than 100 µg/mL; in the assay on Human betaherpesvirus 5 [14], greater than 4 µg/mL. Moreover, the concentration giving a half-maximal response (EC50) in the assay with Human alphaherpesvirus 1 [16] is greater than 200 µg/mL; in the assay with MDCK [17], 1.2 µg/mL (≈ 3.89 µM); in the assay with MDCK [19] it was 0.8 µg/mL (≈ 2.59 µM); in the assay on Vero [20], greater than 200 µg/mL; in [21] it was greater than 200 µg/mL; in the assay on HeLa [22] it was greater than 200 µg/mL. In addition, the IC50 with MOLT-4 was greater than 500 µg/mL; in the assay with CCRF-CEM it was greater than 500 µg/mL; with L1210 it was 295 µg/mL (≈ 957 µM); with FM3A, greater than 500 µg/mL. At Adenosylhomocysteinase [2], this compound displayed a k2 of 0.037 min⁻¹. Also, the MIC with MDCK [3] was 4; in the assay on HeLa [4] it was greater than 200; against E6SM, greater than 200; against Vero [15], greater than 200. In the assay on HEL [7], the CC50 was greater than 50. On Adenosylhomocysteinase [18], this compound came in with an inhibition constant (Ki) of 111 nM.

Consider `Nc1ncnc2c1ncn2[C@@H]1O[C@H](C=NO)[C@@H](O)[C@@H]1O`, for which the half-maximal effective concentration (EC50) in the assay on Human alphaherpesvirus 1 [1] was greater than 100 µg/mL; in the assay with Human alphaherpesvirus 1 [5] it was 70 µg/mL (≈ 250 µM); with Vero [6], greater than 40 µg/mL; in the assay with Vaccinia virus, 20 µg/mL (≈ 71.4 µM); in the assay with Vero [8], greater than 40 µg/mL; in the assay on Human alphaherpesvirus 2, greater than 100 µg/mL. In addition, the concentration for a half-maximal effect (EC50) was greater than 10 µg/mL with Human betaherpesvirus 5 [9]; greater than 40 µg/mL in the assay on Vero [11]; greater than 40 µg/mL with Vero [13]; greater than 10 µg/mL in the assay on Human betaherpesvirus 5 [14]; 70 µg/mL (≈ 250 µM) with Human alphaherpesvirus 1 [16]; greater than 100 µg/mL in the assay on Vero [20]. Moreover, the 50% inhibitory concentration (IC50) in the assay with MOLT-4 is 16.4 µg/mL (≈ 58.5 µM); in the assay on CCRF-CEM, 15 µg/mL (≈ 53.5 µM); with L1210 it was 10.5 µg/mL (≈ 37.5 µM); with FM3A it was 12.7 µg/mL (≈ 45.3 µM). The CC50 in the assay on HEL [7] is given as 34. This compound showed an MIC against E6SM greater than 200.

Consider `Nc1ncnc2c1ncn2[C@@H]1O[C@H](C=NO)[C@@H](O)[C@H]1O`, for which the EC50 with Human alphaherpesvirus 1 [1] was greater than 4 µg/mL; with Human alphaherpesvirus 1 [5], greater than 4 µg/mL; with Vero [6], greater than 0.4 µg/mL; in the assay with Vaccinia virus, greater than 4 µg/mL; with Vero [8], greater than 1 µg/mL; in the assay with Human alphaherpesvirus 2, greater than 4 µg/mL. Also, the half-maximal effective concentration (EC50) in the assay with Human betaherpesvirus 5 [9] was 0.25 µg/mL (≈ 0.892 µM); in the assay on HeLa [10] it was greater than 4 µg/mL; in the assay on Vero [11] it was greater than 0.4 µg/mL; in the assay with Vero [12], greater than 0.4 µg/mL; in the assay on Vero [13] it was greater than 1 µg/mL; in the assay with Human betaherpesvirus 5 [14] it was 0.3 µg/mL (≈ 1.07 µM). Also, the EC50 in the assay with Human alphaherpesvirus 1 [16] is greater than 4 µg/mL; in the assay on MDCK [17] it was greater than 0.8 µg/mL; in the assay on MDCK [19], 0.8 µg/mL (≈ 2.85 µM); with Vero [20], greater than 1 µg/mL; in assay [21] it was less than 4 µg/mL; in the assay with HeLa [22], greater than 40 µg/mL. For the same compound, the IC50 in the assay with MOLT-4 is 5.4 µg/mL (≈ 19.3 µM); with CCRF-CEM, 2.9 µg/mL (≈ 10.3 µM); with L1210, 1.8 µg/mL (≈ 6.42 µM); in the assay with FM3A, 2.3 µg/mL (≈ 8.21 µM). At Adenosylhomocysteinase [2], this compound showed a k2 of 0.16 min⁻¹. The MIC in the assay on MDCK [3] was 0.8; against HeLa [4] it was greater than 4; with E6SM, 7; against Vero [15], greater than 1. In the assay on HEL [7], this compound gave a CC50 of 0.7. The Ki at Adenosylhomocysteinase [18] is 670 nM.

As to `O=c1[nH]c(=O)n([C@H]2C[C@H](O)[C@@H](CO)O2)cc1/C=C/Br` [BRIVUDINE], the EC50 was 10 µg/mL (≈ 30 µM) in the assay on Human alphaherpesvirus 1 [23]; 0.04 µg/mL (≈ 0.12 µM) in the assay with Human alphaherpesvirus 1 [5]; greater than 400 µg/mL in the assay on Vero [6]; 0.7 µg/mL (≈ 2.1 µM) with Vaccinia virus; greater than 400 µg/mL in the assay on Vero [8]; greater than 40 µg/mL with Human betaherpesvirus 5 [9]. The half-maximal effective concentration (EC50) with Vero [11] was greater than 400 µg/mL; with Vero [13], greater than 400 µg/mL; in the assay with Human betaherpesvirus 5 [14], greater than 40 µg/mL; with Human alphaherpesvirus 1 [25] it was greater than 400 µg/mL; in the assay with Human alphaherpesvirus 1 [26], greater than 400 µg/mL; with Vero [20] it was greater than 400 µg/mL. The same compound yielded a CC50 in the assay on HEL [24] greater than 40. This compound also had an MIC in the assay with E6SM greater than 400.
